In patent US10856562B2, “Flavor composition and edible compositions containing same” (MARS, INCORPORATED, priority 2013, dated 2020):
Entries after “also recorded” stand apart in the source; their conditions may differ. Square brackets hold non-standard residues; d marks the D form. Ends that are not written are not given here. pGlu = O=C1CC[C@@H](C(=O)O)N1

System: panelists
Test: Increased salt perception protocol: salt 5 reference (0.35% salt solution) re-tasted after expectoration of test sample
Format: in vivo, human
Conditions: for Astringent, after-expectoration perception / Bitter, after-expectoration perception / Flinty/Mineral, after-expectoration perception / Metallic, after-expectoration perception / Numbing, after-expectoration perception / Salt, after-expectoration perception (mean salt perception after expectoration) / Sour, after-expectoration perception / Sweet, after-expectoration perception: salt 5 reference re-tasted, mean score; for Level of the aromatics, basic tastes and chemical feeling factors after expectoration with increasing concentration / Salt perception from in-mouth to after expectoration: 0.1 to 40.0/50.0 ppb; for Salt perception after expectoration as the concentration increases: 0.1 to 40.0/50.0 ppb in 0.2% NaCl; for Umami like swelling of lips and tongue, after expectoration: all levels; for Salt perception from in-mouth to after expectoration: all samples
Source text: 1. Each panelist tasted a salt reference (0.35% salt solution) with a reference salt intensity of 5.0 which provided a baseline for each panelist for salt intensity. 2. Each panelist tasted a test sample (0.1 ppb, 0.5 ppb, 1.0 ppb, 10.0 ppb or 40.0 ppb all in 0.2% NaCl solution). Only one sample was tasted per session. 3. Each panelist re-tasted the salt reference (5.0 intensity) and rated it for salt intensity as well as any other basic taste, chemical feeling factor, or aromatic perceived. Thus, any increased salt perception as a result of the test sample would be determined, as well as any other perceptions present. Attribute Perception Protocol • The panelists evaluated each sample using the following procedure • Descriptive Profiles (flavor and chemical feeling factors) of 5 levels of salt enhancing solutions • Individual data was collected for the flavor and chemical feeling factors of the product in-mouth • Increased Salt Perception Protocol • Each panelist tasted salt 5 reference (0.35% salt solution)—to ground themselves on salt intensity of 5.0. • Each panelist tasted the test sample (0.1 ppb, 0.5 ppb, 1.0 ppb, 10.0 ppb or 40.0/50.0 ppb all in 0.2% NaCl solution: only one per session) • Each panelist then re-tasted the salt 5 reference and rated it for salt intensity as well as any other basic taste, chemical feeling factor, or aromatic perceived. This captured any increased salt perception indicated by the test sample as well as any other perceptions present. • Return to Baseline Protocol • After evaluating the sample for salt & other perceptions, panelists re-tasted the salt 5 reference at 1 minute intervals until their perception of the salt 5 saltiness intensity had returned to 5.0. Each panelist recorded their salt intensity at each interval and took qualitative notes on other perceptions seen in aftertaste. Sample Preparation

Substance: [pGlu]-Val-Val [SE-17]
- Astringent, after-expectoration perception (0.1 ppb in 0.2% NaCl): 0.0
- Bitter, after-expectoration perception (0.1 ppb in 0.2% NaCl): 0.0
- Flinty/Mineral, after-expectoration perception (0.1 ppb in 0.2% NaCl): 0.6
- Metallic, after-expectoration perception (0.1 ppb in 0.2% NaCl): 0.0
- Numbing, after-expectoration perception (0.1 ppb in 0.2% NaCl): 0.0
- Salt, after-expectoration perception (mean salt perception after expectoration) (0.1 ppb in 0.2% NaCl): 7.3
- Sour, after-expectoration perception (0.1 ppb in 0.2% NaCl): 0.0
- Sweet, after-expectoration perception (0.1 ppb in 0.2% NaCl): 0.0
- Level of the aromatics, basic tastes and chemical feeling factors after expectoration with increasing concentration: do not increase
- Salt perception after expectoration as the concentration increases: does not increase notably; also recorded: Does not show a notable increase
- Astringent, after-expectoration perception (0.5 ppb in 0.2% NaCl): 0.0
- Bitter, after-expectoration perception (0.5 ppb in 0.2% NaCl): 0.0
- Flinty/Mineral, after-expectoration perception (0.5 ppb in 0.2% NaCl): 0.7
- Metallic, after-expectoration perception (0.5 ppb in 0.2% NaCl): 0.2
- Numbing, after-expectoration perception (0.5 ppb in 0.2% NaCl): 0.0
- Salt, after-expectoration perception (mean salt perception after expectoration) (0.5 ppb in 0.2% NaCl): 8.1
- Sour, after-expectoration perception (0.5 ppb in 0.2% NaCl): 0.0
- Sweet, after-expectoration perception (0.5 ppb in 0.2% NaCl): 0.0
- Astringent, after-expectoration perception (1.0 ppb in 0.2% NaCl): 0.0
- Bitter, after-expectoration perception (1.0 ppb in 0.2% NaCl): 0.0
- Flinty/Mineral, after-expectoration perception (1.0 ppb in 0.2% NaCl): 0.5
- Metallic, after-expectoration perception (1.0 ppb in 0.2% NaCl): 0.0
- Numbing, after-expectoration perception (1.0 ppb in 0.2% NaCl): 0.0
- Salt, after-expectoration perception (mean salt perception after expectoration) (1.0 ppb in 0.2% NaCl): 7.3
- Sour, after-expectoration perception (1.0 ppb in 0.2% NaCl): 0.0
- Sweet, after-expectoration perception (1.0 ppb in 0.2% NaCl): 0.0
- Astringent, after-expectoration perception (10.0 ppb in 0.2% NaCl): 0.0
- Bitter, after-expectoration perception (10.0 ppb in 0.2% NaCl): 0.0
- Flinty/Mineral, after-expectoration perception (10.0 ppb in 0.2% NaCl): 0.3
- Metallic, after-expectoration perception (10.0 ppb in 0.2% NaCl): 0.0
- Numbing, after-expectoration perception (10.0 ppb in 0.2% NaCl): 0.0
- Salt, after-expectoration perception (mean salt perception after expectoration) (10.0 ppb in 0.2% NaCl): 7.2
- Sour, after-expectoration perception (10.0 ppb in 0.2% NaCl): 0.0
- Sweet, after-expectoration perception (10.0 ppb in 0.2% NaCl): 0.0
- Astringent, after-expectoration perception (50.0 ppb in 0.2% NaCl): 0.0
- Bitter, after-expectoration perception (50.0 ppb in 0.2% NaCl): 0.0
- Flinty/Mineral, after-expectoration perception (50.0 ppb in 0.2% NaCl): 0.4
- Metallic, after-expectoration perception (50.0 ppb in 0.2% NaCl): 0.0
- Numbing, after-expectoration perception (50.0 ppb in 0.2% NaCl): 0.0
- Salt, after-expectoration perception (mean salt perception after expectoration) (50.0 ppb in 0.2% NaCl): 7.7
- Sour, after-expectoration perception (50.0 ppb in 0.2% NaCl): 0.0
- Sweet, after-expectoration perception (50.0 ppb in 0.2% NaCl): 0.0
- Umami like swelling of lips and tongue, after expectoration: Panelists also experience Umami like swelling of lips and tongue
- Salt perception from in-mouth to after expectoration: increases after expectoration (from in-mouth) in all samples; also recorded: noticeable increase

Substance: [pGlu]-Val-Leu [SE-13]
- Astringent, after-expectoration perception (0.1 ppb in 0.2% NaCl): 0.0
- Bitter, after-expectoration perception (0.1 ppb in 0.2% NaCl): 0.1
- Flinty/Mineral, after-expectoration perception (0.1 ppb in 0.2% NaCl): 0.1
- Metallic, after-expectoration perception (0.1 ppb in 0.2% NaCl): 0.3
- Numbing, after-expectoration perception (0.1 ppb in 0.2% NaCl): 0.0
- Salt, after-expectoration perception (mean salt perception after expectoration) (0.1 ppb in 0.2% NaCl): 6.8
- Sour, after-expectoration perception (0.1 ppb in 0.2% NaCl): 0.0
- Sweet, after-expectoration perception (0.1 ppb in 0.2% NaCl): 0.0
- Level of the aromatics, basic tastes and chemical feeling factors after expectoration with increasing concentration: do not increase
- Salt perception after expectoration as the concentration increases: increases slightly; also recorded: slight increase
- Salt perception after expectoration as the concentration increases (listed as pGlu-Val-Leu): increased slightly
- Astringent, after-expectoration perception (0.5 ppb in 0.2% NaCl): 0.0
- Bitter, after-expectoration perception (0.5 ppb in 0.2% NaCl): 0.0
- Flinty/Mineral, after-expectoration perception (0.5 ppb in 0.2% NaCl): 0.1
- Metallic, after-expectoration perception (0.5 ppb in 0.2% NaCl): 0.3
- Numbing, after-expectoration perception (0.5 ppb in 0.2% NaCl): 0.1
- Salt, after-expectoration perception (mean salt perception after expectoration) (0.5 ppb in 0.2% NaCl): 6.4
- Sour, after-expectoration perception (0.5 ppb in 0.2% NaCl): 0.0
- Sweet, after-expectoration perception (0.5 ppb in 0.2% NaCl): 0.0
- Astringent, after-expectoration perception (1.0 ppb in 0.2% NaCl): 0.0
- Bitter, after-expectoration perception (1.0 ppb in 0.2% NaCl): 0.0
- Flinty/Mineral, after-expectoration perception (1.0 ppb in 0.2% NaCl): 0.2
- Metallic, after-expectoration perception (1.0 ppb in 0.2% NaCl): 0.1
- Numbing, after-expectoration perception (1.0 ppb in 0.2% NaCl): 0.0
- Salt, after-expectoration perception (mean salt perception after expectoration) (1.0 ppb in 0.2% NaCl): 7.5
- Sour, after-expectoration perception (1.0 ppb in 0.2% NaCl): 0.0
- Sweet, after-expectoration perception (1.0 ppb in 0.2% NaCl): 0.0
- Astringent, after-expectoration perception (10.0 ppb in 0.2% NaCl): 0.0
- Bitter, after-expectoration perception (10.0 ppb in 0.2% NaCl): 0.0
- Flinty/Mineral, after-expectoration perception (10.0 ppb in 0.2% NaCl): 0.1
- Metallic, after-expectoration perception (10.0 ppb in 0.2% NaCl): 0.3
- Numbing, after-expectoration perception (10.0 ppb in 0.2% NaCl): 0.0
- Salt, after-expectoration perception (mean salt perception after expectoration) (10.0 ppb in 0.2% NaCl): 8.2
- Sour, after-expectoration perception (10.0 ppb in 0.2% NaCl): 0.0
- Sweet, after-expectoration perception (10.0 ppb in 0.2% NaCl): 0.0
- Astringent, after-expectoration perception (40.0 ppb in 0.2% NaCl): 0.0
- Bitter, after-expectoration perception (40.0 ppb in 0.2% NaCl): 0.0
- Flinty/Mineral, after-expectoration perception (40.0 ppb in 0.2% NaCl): 0.3
- Metallic, after-expectoration perception (40.0 ppb in 0.2% NaCl): 0.2
- Numbing, after-expectoration perception (40.0 ppb in 0.2% NaCl): 0.0
- Salt, after-expectoration perception (mean salt perception after expectoration) (40.0 ppb in 0.2% NaCl): 8.3
- Sour, after-expectoration perception (40.0 ppb in 0.2% NaCl): 0.0
- Sweet, after-expectoration perception (40.0 ppb in 0.2% NaCl): 0.0
- Umami like swelling of lips and tongue, after expectoration: Panelists also experience Umami like swelling of lips and tongue
- Salt perception from in-mouth to after expectoration: increases after expectoration in all samples; also recorded: noticeable increase
- Salt perception from in-mouth to after expectoration (listed as pGlu-Val-Leu): increased after expectoration in all samples

Substance: [pGlu]-Val [SE-14]
- Astringent, after-expectoration perception (0.1 ppb in 0.2% NaCl): 0.0
- Bitter, after-expectoration perception (0.1 ppb in 0.2% NaCl): 0.0
- Flinty/Mineral, after-expectoration perception (0.1 ppb in 0.2% NaCl): 1.1
- Metallic, after-expectoration perception (0.1 ppb in 0.2% NaCl): 0.3
- Numbing, after-expectoration perception (0.1 ppb in 0.2% NaCl): 0.0
- Salt, after-expectoration perception (mean salt perception after expectoration) (0.1 ppb in 0.2% NaCl): 6.7
- Sour, after-expectoration perception (0.1 ppb in 0.2% NaCl): 0.0
- Sweet, after-expectoration perception (0.1 ppb in 0.2% NaCl): 0.0
- Level of the aromatics, basic tastes and chemical feeling factors after expectoration with increasing concentration: do not increase
- Salt perception after expectoration as the concentration increases: increases slightly; also recorded: slight increase
- Astringent, after-expectoration perception (0.5 ppb in 0.2% NaCl): 0.1
- Bitter, after-expectoration perception (0.5 ppb in 0.2% NaCl): 0.0
- Flinty/Mineral, after-expectoration perception (0.5 ppb in 0.2% NaCl): 1.0
- Metallic, after-expectoration perception (0.5 ppb in 0.2% NaCl): 0.1
- Numbing, after-expectoration perception (0.5 ppb in 0.2% NaCl): 0.0
- Salt, after-expectoration perception (mean salt perception after expectoration) (0.5 ppb in 0.2% NaCl): 7.0
- Sour, after-expectoration perception (0.5 ppb in 0.2% NaCl): 0.0
- Sweet, after-expectoration perception (0.5 ppb in 0.2% NaCl): 0.0
- Astringent, after-expectoration perception (1.0 ppb in 0.2% NaCl): 0.1
- Bitter, after-expectoration perception (1.0 ppb in 0.2% NaCl): 0.0
- Flinty/Mineral, after-expectoration perception (1.0 ppb in 0.2% NaCl): 0.5
- Metallic, after-expectoration perception (1.0 ppb in 0.2% NaCl): 0.1
- Numbing, after-expectoration perception (1.0 ppb in 0.2% NaCl): 0.0
- Salt, after-expectoration perception (mean salt perception after expectoration) (1.0 ppb in 0.2% NaCl): 7.0
- Sour, after-expectoration perception (1.0 ppb in 0.2% NaCl): 0.0
- Sweet, after-expectoration perception (1.0 ppb in 0.2% NaCl): 0.0
- Astringent, after-expectoration perception (10.0 ppb in 0.2% NaCl): 0.0
- Bitter, after-expectoration perception (10.0 ppb in 0.2% NaCl): 0.0
- Flinty/Mineral, after-expectoration perception (10.0 ppb in 0.2% NaCl): 1.0
- Metallic, after-expectoration perception (10.0 ppb in 0.2% NaCl): 0.2
- Numbing, after-expectoration perception (10.0 ppb in 0.2% NaCl): 0.0
- Salt, after-expectoration perception (mean salt perception after expectoration) (10.0 ppb in 0.2% NaCl): 7.3
- Sour, after-expectoration perception (10.0 ppb in 0.2% NaCl): 0.0
- Sweet, after-expectoration perception (10.0 ppb in 0.2% NaCl): 0.0
- Astringent, after-expectoration perception (50.0 ppb in 0.2% NaCl): 0.1
- Bitter, after-expectoration perception (50.0 ppb in 0.2% NaCl): 0.0
- Flinty/Mineral, after-expectoration perception (50.0 ppb in 0.2% NaCl): 0.6
- Metallic, after-expectoration perception (50.0 ppb in 0.2% NaCl): 0.1
- Numbing, after-expectoration perception (50.0 ppb in 0.2% NaCl): 0.0
- Salt, after-expectoration perception (mean salt perception after expectoration) (50.0 ppb in 0.2% NaCl): 8.0
- Sour, after-expectoration perception (50.0 ppb in 0.2% NaCl): 0.0
- Sweet, after-expectoration perception (50.0 ppb in 0.2% NaCl): 0.0
- Umami like swelling of lips and tongue, after expectoration: Panelists also experience Umami like swelling of lips and tongue
- Salt perception from in-mouth to after expectoration: increases after expectoration (from in-mouth) in all samples; also recorded: noticeable increase
